From ChEMBL document CHEMBL1201862, “PubChem BioAssay data set” (2004)
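The compound was tested at five concentrations on cells cultured in 96-well plates, with a 48-hour exposure period. GI50: concentration for 50% inhibition of growth.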 The source made the active and inactive calls. Cut-off read from the data, not from the text of the source: active = GI50 up to about 1.1 µM and inactive = higher.

Experiments:
Experiment in all cases: NCI-60 cell line screen, 48 h
[1] = system: A498
[2] = system: BT-549
[3] = system: COLO 205
[4] = system: DU-145
[5] = system: HCC 2998
[6] = system: HOP-62
[7] = system: HT-29
[8] = system: IGROV-1
[9] = system: MOLT-4
[10] = system: NCI-H23
[11] = system: NCI/ADR-RES
[12] = system: OVCAR-4
[13] = system: PC-3
[14] = system: RPMI-8226
[15] = system: RXF 393
[16] = system: SNB-19
[17] = system: SNB-75
[18] = system: SR
[19] = system: TK-10

Row | SMILES | GI50 [1] | GI50 [2] | GI50 [3] | GI50 [4] | GI50 [5] | GI50 [6] | GI50 [7] | GI50 [8] | GI50 [9] | GI50 [10] | GI50 [11] | GI50 [12] | GI50 [13] | GI50 [14] | GI50 [15] | GI50 [16] | GI50 [17] | GI50 [18] | GI50 [19]
1 | Cn1c(=O)c2c(nc3n(Cc4ccccc4)c(=O)c(NCCBr)cn23)n(C)c1=O | 34.9 µM (inactive) | 28.4 µM (inactive) | 49.1 µM (inactive) | 27.8 µM (inactive) | 16.1 µM (inactive) | 18.8 µM (inactive) | 41.2 µM (inactive) | 33 µM (inactive) | 45.6 µM (inactive) | 40.4 µM (inactive) | 21.8 µM (inactive) | 16.3 µM (inactive) | 20.1 µM (inactive) | 23.8 µM (inactive) | 14.9 µM (inactive) | 30.4 µM (inactive) | 20 µM (inactive) | 6.43 µM (inactive) | 16.3 µM (inactive)
2 | CN(C)CCn1c(=O)c2ccc(NCCCN(C)CCCNc3ccc4c(=O)n(CCN(C)C)c(=O)n5c6ccc([N+](=O)[O-])cc6c(=O)c3c45)c3c(=O)c4cc([N+](=O)[O-])ccc4n(c1=O)c23 | 0.0478 µM (active) | 0.0376 µM (active) | < 0.01 µM (active) | < 0.01 µM (active) | < 0.01 µM (active) | < 0.01 µM (active) | < 0.01 µM (active) | < 0.01 µM (active) | < 0.01 µM (active) | < 0.01 µM (active) | 0.0802 µM (active) | < 0.01 µM (active) | < 0.01 µM (active) | < 0.01 µM (active) | 0.0122 µM (active) | < 0.01 µM (active) | < 0.01 µM (active) | < 0.01 µM (active) | < 0.0143 µM (active)
3 | NS(=O)(=O)c1ccc(NNc2c3ccccc3nc3ccccc23)cc1 | 18.3 µM (inactive) | 10.3 µM (inactive) | 7.29 µM (inactive) | 14.3 µM (inactive) | 12.2 µM (inactive) | 12.2 µM (inactive) | 7.73 µM (inactive) | 11.2 µM (inactive) | 6.04 µM (inactive) | 13.6 µM (inactive) | 14 µM (inactive) | 10.5 µM (inactive) | 11.5 µM (inactive) | 9.4 µM (inactive) | 13.2 µM (inactive) | 14.7 µM (inactive) | 12.9 µM (inactive) | 10.8 µM (inactive) | 18.8 µM (inactive)
4 | COC(C(=O)C(O)C(C)O)C1CC2C=C3C=C(OC4CC(OC5CC(O)C(OC)C(C)O5)C(OC(C)=O)C(C)O4)C(C)C(O)=C3C(O)=C2C(=O)C1OC1CC(OC2CC(OC3CC(C)(O)C(OC(=O)C(C)C)C(C)O3)C(O)C(C)O2)C(O)C(C)O1 (stereo unspecified) | < 0.01 µM (active) | < 0.01 µM (active) | < 0.01 µM (active) | < 0.01 µM (active) | < 0.01 µM (active) | < 0.01 µM (active) | < 0.01 µM (active) | < 0.01 µM (active) | < 0.01 µM (active) | < 0.01 µM (active) | < 0.01 µM (active) | < 0.01 µM (active) | < 0.01 µM (active) | < 0.01 µM (active) | < 0.01 µM (active) | < 0.01 µM (active) | < 0.01 µM (active) | < 0.01 µM (active) | < 0.01 µM (active)
5 | O=C1C2=C(CC3=C(C2)CS(=O)(=O)C3)C(=O)C2=C1CC1=C(C2)CS(=O)(=O)C1 | 43.7 µM (inactive) | 18.5 µM (inactive) | 13 µM (inactive) | 48.2 µM (inactive) | 20.6 µM (inactive) | 20.5 µM (inactive) | 8.59 µM (inactive) | 15.4 µM (inactive) | 23.9 µM (inactive) | 23.9 µM (inactive) | 16.3 µM (inactive) | 10.9 µM (inactive) | 10.8 µM (inactive) | 28.6 µM (inactive) | 27.3 µM (inactive) | 17.7 µM (inactive) | > 20.9 µM (inactive) | 4.4 µM (inactive) | 48.9 µM (inactive)
6 | COc1ccc2c(c1)NC1(CCN(CCCC(=O)c3ccc(F)cc3)CC1)N=N2 | 28.4 µM (inactive) | 26.4 µM (inactive) | 14.5 µM (inactive) | 18.5 µM (inactive) | 14.8 µM (inactive) | 24.7 µM (inactive) | 24.6 µM (inactive) | 21 µM (inactive) | 15.3 µM (inactive) | 25.8 µM (inactive) | 24.4 µM (inactive) | 27.4 µM (inactive) | 23.1 µM (inactive) | 16.6 µM (inactive) | 16.6 µM (inactive) | 35.3 µM (inactive) | 15.1 µM (inactive) | 15.7 µM (inactive) | 20.7 µM (inactive)
7 | CN1CCN(C(=O)c2cn(Cc3cncn3Cc3ccc4c(c3)OCO4)cc2-c2cccc3ccccc23)CC1 | 0.883 µM (active) | 9.75 µM (inactive) | 14.7 µM (inactive) | 37.4 µM (inactive) | 10.6 µM (inactive) | 26.9 µM (inactive) | 3.11 µM (inactive) | 2.85 µM (inactive) | 1.58 µM (inactive) | 12.2 µM (inactive) | 28.2 µM (inactive) | 22.3 µM (inactive) | 15.6 µM (inactive) | 7.05 µM (inactive) | 30 µM (inactive) | 14.3 µM (inactive) | 14.7 µM (inactive) | 0.0237 µM (active) | 29.1 µM (inactive)
8 | O=C1OC(c2ccccc2)=N/C1=C\c1ccc(N(CCCl)CCCl)cc1 | > 100 µM (inactive) | > 100 µM (inactive) | > 100 µM (inactive) | > 100 µM (inactive) | > 100 µM (inactive) | > 89.5 µM (inactive) | > 100 µM (inactive) | > 100 µM (inactive) | 44.9 µM (inactive) | > 57.8 µM (inactive) | > 85.1 µM (inactive) | > 100 µM (inactive) | > 86.5 µM (inactive) | 35.1 µM (inactive) | 42 µM (inactive) | > 100 µM (inactive) | > 100 µM (inactive) | 11.6 µM (inactive) | > 100 µM (inactive)
9 | O=[N+]([O-])c1cc(F)ccc1Sc1ccccc1 | > 10 µM (inactive) | > 10 µM (inactive) | > 10 µM (inactive) | > 10 µM (inactive) | > 10 µM (inactive) | > 10 µM (inactive) | > 10 µM (inactive) | > 10 µM (inactive) | > 10 µM (inactive) | > 10 µM (inactive) | > 10 µM (inactive) | > 10 µM (inactive) | > 10 µM (inactive) | > 10 µM (inactive) | > 10 µM (inactive) | > 10 µM (inactive) | > 10 µM (inactive) | > 10 µM (inactive) | > 10 µM (inactive)
10 | CCOC(=O)C1OC(C2(C)OC3(OC4(C=CC3O)OC(C(C)C(=O)C(C)C(O)C(C)CC(C)c3c(Cl)cc(C)c(O)c3C(=O)O)C(C)CC4C)C(C)C2OC)CC1O (stereo unspecified) | 0.46 µM (active) | 2.08 µM (inactive) | 0.818 µM (active) | 0.598 µM (active) | 0.034 µM (active) | 0.0535 µM (active) | 0.34 µM (active) | 2.1 µM (inactive) | 0.117 µM (active) | 0.507 µM (active) | 1.24 µM (inactive) | 0.544 µM (active) | 1.6 µM (inactive) | 0.54 µM (active) | 0.647 µM (active) | 0.249 µM (active) | 0.163 µM (active) | 0.207 µM (active) | 2.34 µM (inactive)
11 | CC(C)Oc1cccc(N2C(NCc3c[nH]c4ccccc34)=Nc3ccncc3S2(=O)=O)c1 | 28.8 µM (inactive) | 34.8 µM (inactive) | 11.2 µM (inactive) | 42.8 µM (inactive) | 25.5 µM (inactive) | 30.9 µM (inactive) | 25.1 µM (inactive) | 20.4 µM (inactive) | 16.7 µM (inactive) | 22.8 µM (inactive) | 19.7 µM (inactive) | 34.4 µM (inactive) | 16.3 µM (inactive) | 7.01 µM (inactive) | 40.3 µM (inactive) | 32.4 µM (inactive) | 18.3 µM (inactive) | 28.8 µM (inactive) | 25.2 µM (inactive)
12 | Clc1ccc(-c2nnc(-c3cccc4ccccc34)o2)cc1Cl | > 100 µM (inactive) | > 100 µM (inactive) | > 100 µM (inactive) | > 100 µM (inactive) | > 100 µM (inactive) | > 100 µM (inactive) | > 100 µM (inactive) | 4.93 µM (inactive) | 59.7 µM (inactive) | > 100 µM (inactive) | > 100 µM (inactive) | 98.4 µM (inactive) | > 100 µM (inactive) | > 100 µM (inactive) | > 100 µM (inactive) | > 100 µM (inactive) | > 100 µM (inactive) | 40.3 µM (inactive) | > 100 µM (inactive)
13 | FC(F)(F)c1ccc2c(-c3cc[nH]c3)ccnc2c1 | 23.8 µM (inactive) | 22.6 µM (inactive) | 23.6 µM (inactive) | 32.5 µM (inactive) | > 100 µM (inactive) | 35.5 µM (inactive) | 21.4 µM (inactive) | 39.5 µM (inactive) | 19.4 µM (inactive) | 28 µM (inactive) | 37.1 µM (inactive) | 53.2 µM (inactive) | 36.6 µM (inactive) | 34.2 µM (inactive) | 22.5 µM (inactive) | 17.5 µM (inactive) | 14.4 µM (inactive) | 27 µM (inactive) | 28.6 µM (inactive)
14 | CC1(CCCC2(C)CCNC2=O)OCCO1 (stereo unspecified) | > 10 µM (inactive) | > 10 µM (inactive) | > 10 µM (inactive) | > 10 µM (inactive) | > 10 µM (inactive) | > 10 µM (inactive) | > 10 µM (inactive) | > 10 µM (inactive) | > 10 µM (inactive) | > 10 µM (inactive) | > 10 µM (inactive) | > 10 µM (inactive) | > 10 µM (inactive) | > 10 µM (inactive) | > 10 µM (inactive) | > 10 µM (inactive) | > 10 µM (inactive) | > 10 µM (inactive) | > 10 µM (inactive)
